Assay results reported in patent US6331642A, “Vitamin D3 analogs” (Hoffmann-La Roche Inc., priority 2000, dated 2001).
Where two headings read alike, the source gives them in different places.

Legend:
MCF-7 cells [1] = assay: Pulse-exposure experiments, soft agar colony assay; format: cell-based; details: 4 days of exposure, 10^-7, colonies counted day 14
Procedure: Pulse-Exposure Experiments. The MCF-7 cells were incubated in liquid culture with 10^-7 of 1,25(OH)2 D3 or 1,25(OH)2 -16-ene-5,6-trans-D3 for various duration. After incubation, these cells were carefully washed twice with PBS and viable cells were counted and plated into 24-well plates for soft agar colony assay, as previously described.
Pulse-Exposure Experiments. […] The MCF-7 cells were exposed to either 1,25(OH)2 -16-ene-5,6-trans-D3 or 1,25(OH)2 D3 for various durations, washed thoroughly, plated in soft agar, and colony numbers were enumerated on day 14 of culture.

p27^kip1 = assay: Western blot analysis, p27^kip1 in MCF-7 cells; format: cell-based; details: Homo sapiens, read-out: increase in expression of p27^kip1
Procedure: (§1) Western Blot Analysis. Cells were washed twice with PBS, suspended in Lysis buffer (50 mM Tris Ph 8.0, 150 mM NaCl, 0.1% SDS, 0.5% sodium deoxycholate, 1% NP40, 100 μg/ml phenylmethylsulfonyl fluoride, 2 μg/ml aprotinin, 1 μg/ml pepstatin and 10 μg/ml leupeptin), and placed on ice for 30 minutes. After centrifugation at 15,000 g for 20 minutes at 4° C., the supernatant was collected. Protein concentrations were quantitated. Whole lysates (15 μg) were resolved by 15% sodium dodecyl sulphate polyacrylamide gel, were transferred to an immobilon polyvinylidene difuride membrane and were probed with anti-p27^kip1 rabbit polyclonal antibody and anti-Actin murine monoclonal antibody. Blots were developed.
(§2) Western Blot Analysis. The cyclin dependent kinase inhibitors known as p21^waf1 and p27^kip1 are able to inhibit the activity of cyclin kinase and thus slow the progression for the cells through the cell cycle. […] Exposure for one day to 1,25(OH)2 -16-ene-5,6-trans-D3 (10^-7 M) increased expression of p21^waf1 and p27^kip1 by about 3.2-3.5 fold, whereas culture with 1,25(OH)2 D3 (10^-7 M) increased expression of p21^waf1 and p27^kip1 about 1.6-1.8 fold. […] 1,25(OH)2 D3 (10^-7 M, 3 days) increased expression of p21^waf1 and p27^kip1 by 4.8 fold and 3.3 fold, respectively.

telomerase = assay: Telomerase activity (TRAP assay) in HL-60 cells; format: cell-based; details: 4 days
Procedure: Telomerase Activity. To detect the relative telomerase activity, telomeric repeat amplification protocol (TRAP) assays were performed. For human telomerase reverse transcriptase (hTERT), total RNAs were isolated from HL-cells which were treated with either 1,25(OH)2 D3 or 1,25(OH)2 -16-ene-5,6-trans-D3 (10^- 9 10^-8, and 10^-7 M) for 4 days with a monophasic solution of phenol and guanidine isothiocyanate. RT-PCR was performed with 1 μg of total RNA and random hexamer primers. cDNA was amplified using primers specific for the hTERT gene or the GAPDH gene, which was used as a control. The primers used for hTERT were: 5'-[…]-3' (sense) (SEQ ID NO: 1), and 5'-GGATGAAGCGGAGTCTGGA-3'-(antisense) (SEQ ID NO: 2). The thermal cycles were 94° C. for 90 seconds, followed by 33 cycles of 95° C. for 20 seconds, 68° C. for 40 seconds, and 72° C. for 30 seconds. Primers for the GAPDH gene were: 5'-CCATGGAGAAGGCTGGGG-3' (sense) (SEQ ID NO: 3), and 5'-[…]-3' (antisense) (SEQ ID NO: 4). Conditions for GAPDH amplifications were: 94° C. for 2 minutes, 26 cycles of 94° C. for 30 seconds, 62° C. for 40 seconds, 72° C. for 60 seconds, followed by 72° C. for 4 minutes. […]
Telomerase Activity. The effect of 1,25(OH)2 -16-ene-5,6-trans-D3and 1,25(OH)2 D3 (10^-9 -10^-7 M, 4 days) on telomerase activity was evaluated using the TRAP assay.

MCF-7 cells [2] = assay: Cell cycle analysis by flow cytometry; format: cell-based; details: 10^-7 M, 4 days
Procedure: Cell Cycle Analysis by Flow Cytometry. Cell cycle analysis was performed on MCF-7 cells incubated for 4 days with either 1,25(OH)2 D3 or 1,25(OH)2 -16-ene-5,6-trans-D3 at 10^-7 M. The cells were fixed in chilled methanol overnight before staining with 50 μg/ml propidium iodide, 1 mg/ml Rnase (100 units/ml) and 0.1% NP40. Analysis was performed immediately after staining. All experiments were done at least three times independently. All data were statistically analyzed by Student's test.
Cell cycle Analysis. Effect of 1,25(OH)2 -16-ene-5,6-trans-D3 and 1,25(OH)2 D3 (10^-7, 4 days) on the cell cycle of the MCF-7 cells was determined.

hTERT mRNA = hTERT mRNA expression (RT-PCR) in HL-60 cells; format: cell-based, human; details: for IC (almost complete): Homo sapiens, read-out: concentration giving almost complete inhibition of hTERT mRNA expression
Procedure: Telomerase Activity. To detect the relative telomerase activity, telomeric repeat amplification protocol (TRAP) assays were performed. For human telomerase reverse transcriptase (hTERT), total RNAs were isolated from HL-cells which were treated with either 1,25(OH)2 D3 or 1,25(OH)2 -16-ene-5,6-trans-D3 (10^- 9 10^-8, and 10^-7 M) for 4 days with a monophasic solution of phenol and guanidine isothiocyanate. RT-PCR was performed with 1 μg of total RNA and random hexamer primers. cDNA was amplified using primers specific for the hTERT gene or the GAPDH gene, which was used as a control. The primers used for hTERT were: 5'-[…]-3' (sense) (SEQ ID NO: 1), and 5'-GGATGAAGCGGAGTCTGGA-3'-(antisense) (SEQ ID NO: 2). The thermal cycles were 94° C. for 90 seconds, followed by 33 cycles of 95° C. for 20 seconds, 68° C. for 40 seconds, and 72° C. for 30 seconds. Primers for the GAPDH gene were: 5'-CCATGGAGAAGGCTGGGG-3' (sense) (SEQ ID NO: 3), and 5'-[…]-3' (antisense) (SEQ ID NO: 4). Conditions for GAPDH amplifications were: 94° C. for 2 minutes, 26 cycles of 94° C. for 30 seconds, 62° C. for 40 seconds, 72° C. for 60 seconds, followed by 72° C. for 4 minutes. PCR products were electrophoresed on 1% agarose gel and stained with ethidium bromide.
The effects of vitamin D3 analogs on hTERT expression in HL-60 cells was evaluated using RT-PCR.

left femur (distal half) = assay: Total femoral bone calcium in ovariectomized rats; format: in vivo, adult female rats; details: ovx rats, 19 days, text: calcium in mg/distal half femur, Ovx/Veh. 10.58
Procedure: Three month old adult female rats were subjected to bilateral ovariectomy or sham surgery. After a week of acclimatization the animals were weight grouped and treated by oral gavage at 1 mg/kg of specified concentration. Dose volume was calculated weekly using the group average body weight. Dosing started 17 days post surgery and continued for 19 days. On the 20th day animals were euthanized by carbon dioxide inhalation and left femurs excised.
At necropsy the left femurs from all groups were excised and soft tissue removed. The bones were measured and cut in half at mid-diaphysis; then the distal portion was cut in half longitudinally after removal of the epiphysis. The bone marrow was flushed out and the calcium was extracted by immersion in 5% TCA. The calcium content of TCA extracts was determined by using quantitative, colorimetric determination of calcium. The data were expressed as mean total bone calcium in mg/distal half femur (DHF)±serum.
For a verification of the effect of ovariectomy on bone calcium, the sham and ovx vehicle groups were compared using student's t-test. The ovx groups were compared by one-way analysis of variance (ANOVA), followed by Fisher's LSD to compare each treatment group to vehicle when the overall effect was statistically significant.

ventral prostate = assay: Antiandrogenic activity in castrated testosterone stimulated hamsters, ventral prostate; format: in vivo, male Syrian hamsters
Procedure: 1,25(OH)2 -16-ene-5,6-trans D3 was evaluated for antiandrogenic activity in castrated, testosterone stimulated male Syrian hamsters.
[…] Both compounds were administered in a vehicle of 0.2 ml sesame oil each. Necropsy was performed on day 15. The prostate and seminal vesicles were removed, blotted and weighed. Data were analyzed for statistical significance using the Student's t-test and are expressed as percent inhibition of stimulated response.

p21^waf1 = assay: Western blot analysis, p21^waf1 in MCF-7 cells; format: cell-based; details: Homo sapiens, read-out: increase in expression of p21^waf1
Procedure: as §1, §2

[3] = testosterone + 0.1 μg compound s.c. daily, 14 days

Question: With `C=C1/C(=C/C=C2\CCC[C@]3(C)C([C@H](C)CCCC(C)(C)O)=CC[C@@H]23)C[C@@H](O)C[C@@H]1O` [1,25(OH)2-16-ene-5,6-trans-D3, 1,25-Dihydroxy-16-ene-5,6-trans-cholecalciferol] as the compound, how does the clonogenic cells inhibited (MCF-7 cells [1]) read?
Answer: Approximately forty

Question: What about the fold induction at 0.1 µM (p27^kip1; MCF7, 24 h) of the same compound?
Answer: 3.2 to 3.5

Question: And the fold induction at 0.1 µM (p27^kip1; MCF7, 72 h)?
Answer: 3.4

Question: And the telomerase activity (telomerase; 10^-9 M)?
Answer: markedly decreased

Question: What about the “number of cells in the G0-G1 phase” value (MCF-7 cells [2]) of the same compound?
Answer: significant increase (P≤0.05)

Question: What about the “proportion of cells in S phase” value (MCF-7 cells [2]) of the same compound?
Answer: concomitant decrease

Question: What about the “expression of hTERT mRNA” value (hTERT mRNA; HL-60 cells, 4 days) of the same compound?
Answer: inhibited the expression of hTERT mRNA in a dose-dependent manner

Question: And the IC (almost complete) (hTERT mRNA; 96 h, HL-60 cells, 4 days)?
Answer: 0.01 µM

Question: What about the “Femur CA/100 g BW” value (left femur (distal half); 2.000 μg/kg oral) of the same compound?
Answer: 11.49 /100 g BW

Question: And the “androgen-induced hypertrophy of the ventral prostate gland” value (ventral prostate; castrated, testosterone stimulated hamsters)?
Answer: substantially suppressed

Question: What about the “Ventral prostate Inhib. (percent inhibition of stimulated response)” value (ventral prostate; [3]) of the same compound?
Answer: 77%

Question: What about the Ventral prostate weight (ventral prostate; [3]) of the same compound?
Answer: 19 ± 2 mg

Question: And the fold induction at 0.1 µM (p21^waf1; MCF7, 24 h)?
Answer: 3.2 to 3.5

Question: And the fold induction at 0.1 µM (p21^waf1; MCF7, 72 h)?
Answer: 2.8

Question: How did the clonogenic cells inhibited (MCF-7 cells [1]) turn out when `C=C1/C(=C\C=C2/CCC[C@]3(C)[C@@H]([C@H](C)CCCC(C)(C)O)CC[C@@H]23)C[C@@H](O)C[C@@H]1O` [1,25(OH)2 D3, reference compound] was run?
Answer: thirty

Question: What about the fold induction at 0.1 µM (p27^kip1; MCF7, 24 h) of the same compound?
Answer: 1.6 to 1.8

Question: What about the fold induction at 0.1 µM (p27^kip1; MCF7, 72 h) of the same compound?
Answer: 3.3

Question: And the telomerase activity (telomerase; 10^-7 M)?
Answer: markedly decreased

Question: What about the “number of cells in the G0-G1 phase” value (MCF-7 cells [2]) of the same compound?
Answer: significant increase (P≤0.05)

Question: And the “proportion of cells in S phase” value (MCF-7 cells [2])?
Answer: concomitant decrease

Question: What about the “expression of hTERT mRNA” value (hTERT mRNA; HL-60 cells, 4 days) of the same compound?
Answer: inhibited the expression of hTERT mRNA in a dose-dependent manner

Question: And the IC (almost complete) (hTERT mRNA; HL-60, 96 h)?
Answer: 0.1 µM

Question: What about the “Femur CA/100 g BW” value (left femur (distal half); 0.500 μg/kg oral) of the same compound?
Answer: 11.91 /100 g BW

Question: What about the “androgen-induced hypertrophy of the ventral prostate gland” value (ventral prostate; non-toxic doses (1 μg)) of the same compound?
Answer: inactive

Question: What about the fold induction at 0.1 µM (p21^waf1; MCF7, 24 h) of the same compound?
Answer: 1.6 to 1.8

Question: What about the fold induction at 0.1 µM (p21^waf1; MCF7, 72 h) of the same compound?
Answer: 4.8
